In one assay the test system is mouse CML LSC. Put plainly: In vivo treatment of transplanted CML mice in combination with NIL. The settings on record: 5 mg/kg i.v. 4 times a week plus NIL 50 mg/kg daily by gavage, 3 weeks. The method, then: FIGS. 24A-24I. […] BM cells from SCL-tTA/BCR-ABL mice (CD45.2) were transplanted into congenic B6 mice (CD45.1, n=40) to generate a cohort of mice with CML-like disease. Following confirmation of CML development at 4 weeks after transplantation, mice were randomly divided into 4 groups (n=10 each) and treated with CpG-miR-126 inhibitor (5 mg/kg i.v. 4 times a week), CpG-scrRNA (5 mg/kg, i.v. 4 times a week), CpG-miR-126 inhibitor plus NIL (50 mg/kg, daily by gavage), and CpG-scrRNA plus NIL for 3 weeks. Percentage of donor CML cells in peripheral blood (PB) (FIG. 24A), spleen (FIG. 24B) and bone marrow (BM) (FIG. 24C), numbers of donor CML LSK in spleen (FIG. 24D) and BM (FIG. 24E), and numbers of donor CML long term hematopoietic stem cells (LTHSC) in spleen (FIG. 24F) and BM (FIG. 24G) after 3 weeks' treatment were measured. […] The recipient mice were monitored for 16 weeks for CML cell engraftment in blood and leukemia development by WBC count. Frequency of LIC was quantified using L-Calc software (FIG. 24I). […]
BM cells from SCL-tTA/BCR-ABL mice (CD45.2) were transplanted into congenic B6 mice (CD45.1, n=40) to generate a cohort of mice with CML-like disease. […] The recipient mice were monitored for 16 weeks for CML cell engraftment in blood and leukemia development by WBC count. Frequency of LIC was quantified using L-Calc software (FIG. 24I). […]

Assay [1] relates to Normal, cord blood, AML and CML CD34+ cells. Description: Uptake of CpG-anti-miR126 inhibitor-Cy3 in primary CD34+ cells, Cy3 by flow cytometry. The class given is cell-based, human. The note with it: 500 nM; primary patients' AML and CML CD34+ cells. On the procedure: FIGS. 2A-2D are flow cytometry histograms showing results of uptake tests in normal, cord blood, acute myeloid leukemia (AML), and chronic myeloid leukemia (CML) CD34+ cells. Normal (NL), cord blood (CB), AML and CML34+ cells were cultured with CpG-scramble RNA (500 nM) and CpG-miR126 inhibitor-Cy3 (500 nm) for 16 hours. FIG. 2A is a histogram showing uptake in NL/CB cells with 600 CpG siRNA. FIG. 2B is a histogram showing NL/CB cells with 500 CpG-siRNA. FIG. 2C is a histogram showing uptake in AML cells. FIG. 2D is a histogram showing uptake in CML cells. Uptake was measured by Cy3 expression in these cells by flow cytometry.
Normal, cord blood, AML and CML CD34+ cells were cultured with CpG-anti-miR126 inhibitor-Cy3 or anti-miR126 inhibitor-Cy3 for 16 hours, and the uptake was measured by Cy3 expression in the cells by flow cytometry (FIGS. 2A-2D). All tested cells internalized CpG-anti-miR126-Cy3 but not the anti-miR126-Cy3 with high efficiency.
(§1) Normal, cord blood, AML and CML CD34+ cells were cultured with CpG-scramble RNA (500 nM) and CpG-anti-miR126 inhibitor-Cy3 (500 nM) for 24 hours, and then miR126 and RNU44 (ctrl) expression in these cells were analyzed by Q-RT-PCR (FIG. 5). The miR126 expression levels were normalized to RNU44 and calculated by using the comparative 2^−ΔΔCt method.
A general note: In flow cytometry, cells or beads pass a laser one at a time.

A further assay deals with miR126. Description: miRNA126 expression in NL/CB, AML and CML CD34+ cells by Q-RT-PCR. The class given is cell-based, human. The note with it: 500 nM, 24 hours; primary patients' AML and CML CD34+ cells. On the procedure:
FIG. 5 is a bar graph showing the expression of miRNA 126 in NL/CB, AML and CML CD34+ cells. Normal, cord blood, AML and CML CD34+ cells were cultured with CpG-scramble RNA (500 nM) and CpG-miR 126 inhibitor-Cy3 (500 nM) for 24 hours. miR126 and RNU44 (control) expression was analyzed by q-RT-PCR. The miR126 expression levels were normalized to RNU44 and calculated by using the comparative 2^−ΔΔct method.
as §1

Consider “5′ G*G*T GCA TCG ATG CAGG*G*G* G*G (SEQ ID NO: 1) xxxxx mCmGmC mAmUmU mAmUmU mAmCmU mCmAmC mGmGmU mAmCmG mA (SEQ ID NO: 17) 3′ [CpG-anti-miR126]”, for which the “elimination of mouse CML LSC” value in the assay on mouse CML LSC is on record as “enhances elimination of mouse CML LSC”. Further, the “internalization by primary cells” value in assay [1] is listed as “quickly internalized”. Besides, the “reduction of miR126 expression” value in the assay with miR126 is 60%-90%.

The values are drawn from patent publication US11591596B2, “Compounds and compositions including phosphorothioated oligodeoxynucleotide, and methods of use thereof” (City of Hope, priority 2015, dated 2023).
